Key:
[1] = Dissolution testing, Experiment 1: stirring in water at room temperature; assay type: physicochemical; details: 5 mg Form A or same molar amount of co-crystal stirred at room temperature in 100 ml water
Text: Experiment 1 clearly indicated significant and faster dissolution of the barcitinib lactic acid co-crystal of the invention compared to pure cristallin baritinib form A. However, no quantitative data could be derived from this setup.

[2] = EPAR, cited from earlier work
[3] = Differential scanning calorimetry (thermal stability); assay type: physicochemical; details: heating rate 10 K/min, up to melting at about 168-170° C.
Method: The baricitinib lactic acid co-crystal according to the present invention was investigated by DSC, which was performed with a DSC 7 (Perkin-Elmer, Norwalk, Conn., USA) using a Pyris 2.0 software. Approximately 4±0.0005 mg sample (using a UM3 ultramicrobalance, Mettler, Greifensee, CH) were weighed into Al-Pans (25 μl) and sealed with a cover, which was perforated by a needle. Dry nitrogen was used as the purge gas (purge: 20 ml/min). Heating rate: 10 K/min.

[4] = Dissolution testing, Experiment 2: photometric (310 nm) dissolution in phosphate buffer pH 6.8; assay type: physicochemical; details: 50 mL phosphate buffer pH 6.8, 0.01% Tween 80, 37° C.
Method: We used this to quantify baricitinib concentrations. Light absorption was measured with a Shimadzu UV-1800 double beam photometer at 310 nm in a lcm quartz glass cuvette.
To counterbalance the acidifying effect of the lactic acid from the barcitinib lactic acid co-crystal, the experiments were performed in a phosphate buffer solution at a constant pH of 6.8 ([…]; 0.01 mol/L). Furthermore, 0.01% Tween 80 was added to the buffer solution in order to avoid potential agglomeration during the dissolution test.
Experiment 2: 20 mg of crystalline baricitinib free base Form A or 24.85 mg of the baricitinib lactic acid co-crystal of the present invention were stirred in a closed vessel in 50 mL of the buffer solution at 37° C. After 1, 5, 10, 15, 20, 30, 45 and 75 minutes filtered samples of the suspension were taken and diluted 1:4 with buffer solution to reach an absorption value within the calibration curve.

concentration of dissolved baricitinib at 1 minute compared to baricitinib free base form A ([4]; 1 minute)	dissolution rate compared to baricitinib free base form A ([4]; FIG. 7)	Structure (SMILES)	dissolution in water [1]	solubility in 0.1 N HCl ([2]; 0.1 N HCl)	solubility in water ([2]; water)	thermal stability (DSC) [3]
–	–	CCS(=O)(=O)N1CC(CC#N)(n2cc(-c3ncnc4[nH]ccc34)cn2)C1 [baricitinib free base Form A, 2-[1-(Ethylsulfonyl)-3-[4-(7H-pyrrolo[2,3-d]pyrimidin-4-yl)-1H-pyrazol-1-yl]azetidin-3-yl]acetonitrile, reference compound]	no detectable dissolution	–	–	–
–	–	CCS(=O)(=O)N1CC(CC#N)(n2cc(-c3ncnc4[nH]ccc34)cn2)C1 [baricitinib, 2-[1-(Ethylsulfonyl)-3-[4-(7H-pyrrolo[2,3-d]pyrimidin-4-yl)-1H-pyrazol-1-yl]azetidin-3-yl]acetonitrile]	–	only slightly soluble	practically insoluble	–
three time higher	dissolved more quickly	CCS(=O)(=O)N1CC(CC#N)(n2cc(-c3ncnc4[nH]ccc34)cn2)C1 [baricitinib lactic acid co-crystal]	a detectable and significant amount dissolved within minutes	–	–	neither phase changes nor desolvation events are detectable until the sample melts

— US20210206770A1, “Co-Crystal of an Orally Available Janus Kinase Inhibitor” (Sandoz AG, priority 2017, published 2021)
